Legend:
[1] = target: T1, human AChE (hAChE), recombinant acetylcholinesterase (Homo sapiens, UniProt P22303); experiment: hAChE inhibition, modified Ellman's method; format: biochemical; details: for SI (selectivity index for hAChE): ratio IC50(hBChE)/IC50(hAChE)
T1 construct: made in house
Protocol: Three series of tacrine-squaramide homodimers were tested for their inhibitory potential against human AChE (hAChE) and human BChE (hBChE) enzymes using modified spectrophotometric method of Ellman et al.. THA, 6-Cl-THA and 7-MEOTA were used as reference compounds. […].
(§1) Human plasmatic butyrylcholinesterase (BChE; EC 3.1.1.8) and recombinant acetylcholinesterase (AChE; 3.1.1.7) were prepared at the Department of Toxicology and Military Pharmacy. 5,5′-dithiobis(2-nitrobenzoic acid) (Ellman’s reagent, DTNB), phosphate buffer (PB, pH 7.4), acetylthiocholine (ATC) and butyrylthiocholine (BTC), were purchased from Sigma-Aldrich, Prague, Czech Republic. For measuring purposes – polystyrene Nunc 96-well microplates with flat bottom shape (ThermoFisher Scientific, USA) were utilized.
(§2) All the assays were carried out in 0.1 M KH2PO4/K2HPO4 buffer, pH 7.4. Enzyme solutions were prepared at 2.0 units/mL in 2 mL aliquots. The assay medium (100 µL) consisted of 40 µL of 0.1 M phosphate buffer (pH 7.4), 20 µL of 0.01 M DTNB, 10 µL of the enzyme, and 20 µL of 0.01 M substrate (ATC/BTC iodide solution).
(§3) Tested compounds were preincubated for 5 min. The reaction was started by immediate addition of 20 µL of the substrate. The activity was determined by measuring the increase in absorbance at 412 for AChE/BChE at 37 °C at 2 min intervals - using a Multi-mode microplate reader Synergy 2 (Winooski, VT, USA). Each concentration was assayed in triplicate. Software GraphPad Prizm 5 (San Diego, CA, USA) was used for the statistical data evaluation.

[2] = target: human BChE (hBChE), human plasmatic butyrylcholinesterase (Homo sapiens, UniProt P06276); experiment: hBChE inhibition, modified Ellman's method; format: biochemical; details: mean of at least three experiments; read-out: IC50 hBChE
Protocol: Three series of tacrine-squaramide homodimers were tested for their inhibitory potential against human AChE (hAChE) and human BChE (hBChE) enzymes using modified spectrophotometric method of Ellman et al.. THA, 6-Cl-THA and 7-MEOTA were used as reference compounds.
as §1, §2, §3

in vitro = details: human
Protocol: The human origin cell line HepG2 (ATCC, Mannassas, VA, USA) isolated from liver hepatocellular carcinoma was used to evaluate cytotoxicity of tested compounds. The cells were cultivated in Dublecco’s modified Eagle’s medium (DMEM; Biosera, Nuaille, France) supplemented with 10% fetal bovine serum (Biosera) and 1% penicillin-streptomycin antibiotic solution (Sigma-Aldrich, St. Louis, MO, USA), incubated at 37 °C in a CO2 incubator (Binder CO2 incubator BC 160, Tuttlingen, Germany) and routinely passaged by trypsinization at 75–85% confluence.
The final concentration of DMSO was less than 0.25% per well.
After 24-h incubation, the medium containing serially diluted substances was aspirated from each well and replaced by 100 µL of fresh medium containing MTT (0.5 mg/mL). Plates were subsequently incubated at 37 °C in CO2 incubator for 45 min. The medium containing MTT was then aspirated and formazan dissolved in 100 μL of DMSO. The optical density of each well was measured using Synergy 2 Multi-Mode Microplate Reader (BioTek Instruments, Inc., Winooski, VT, USA) at 570 nm. The cell viability was expressed as the percentage of untreated control. Each experiment was performed in triplicate and repeated three independent times.
The IC50 values were expressed as a mean ± standard error of the mean (SEM).

[3] = for Pe: PAMPA, PBS pH 7.4; for CNS (+/−) predicted BBB permeation: class from Pe
Description: An important feature for drugs targeting the brain is their ability to cross the BBB. The parallel artificial membrane permeability assay (PAMPA) is a high-throughput screening tool applicable for prediction of passive transport across BBB [57]. […] These include mainly (i) the different composition of the human phospholipid bilayer may cause deviation in predicted permeability, (ii) omitting the absorption of compounds that are actively transported by influx transporters and pumped-out by various efflux mechanisms with the glycoprotein P at the forefront or (iii) transport through the paracellular route which is mostly exploited by small […] molecules. Even considering these drawbacks, PAMPA-BBB is conceived as very simple but powerful tool for BBB prediction.
PAMPA (the parallel artificial membrane permeability assay) is a high-throughput screening tool applicable for prediction of the passive transport of potential drugs across the blood-brain barrier (BBB). In this study, it has been used as a non-cell-based in vitro assay carried out in a coated 96-well membrane filter. The filter membrane of the donor plate was coated with PBL (Polar Brain Lipid, Avanti, USA) in dodecane (4 µl of 20 mg/mL PBL in dodecane) and the acceptor well was filled with 300 µl of phosphate buffer saline, (PBS pH 7.4; VA). The tested compounds were dissolved first in DMSO and then diluted with PBS pH 7.4 to reach the final concentrations 50–500 µM in the donor well. […] In principle, test compound diffuse from the donor well through the polar brain lipid membrane (area = 0.28 cm^2) to the acceptor well. The concentration of the tested compound in both donor and the acceptor wells were assessed after 3, 4, 5 and 6 h of incubation in quadruplicate using the UV plate reader Synergy HT (Biotek, USA) at the maximum absorption wavelength of each compound (n = 3). Besides that, the solution of theoretical compound concentration, simulating the equilibrium state, established if the membrane was ideally permeable was prepared and assessed as well.

Sequence of human BChE (hBChE), human plasmatic butyrylcholinesterase (P06276 29-602): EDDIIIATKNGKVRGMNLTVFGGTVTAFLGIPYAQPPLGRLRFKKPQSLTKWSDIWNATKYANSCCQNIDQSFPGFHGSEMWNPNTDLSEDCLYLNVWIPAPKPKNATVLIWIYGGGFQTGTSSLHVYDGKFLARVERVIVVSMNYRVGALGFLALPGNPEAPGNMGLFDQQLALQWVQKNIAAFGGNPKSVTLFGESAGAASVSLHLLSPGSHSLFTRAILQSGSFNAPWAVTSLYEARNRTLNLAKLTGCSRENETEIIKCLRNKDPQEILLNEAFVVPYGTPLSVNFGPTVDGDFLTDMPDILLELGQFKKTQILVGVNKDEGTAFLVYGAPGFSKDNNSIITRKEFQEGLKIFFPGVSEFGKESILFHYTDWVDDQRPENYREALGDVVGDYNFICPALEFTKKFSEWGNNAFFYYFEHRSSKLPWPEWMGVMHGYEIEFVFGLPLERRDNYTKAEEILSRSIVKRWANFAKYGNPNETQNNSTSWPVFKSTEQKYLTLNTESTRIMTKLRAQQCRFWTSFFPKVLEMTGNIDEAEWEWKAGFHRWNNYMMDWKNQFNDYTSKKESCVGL
T1 sequence (P22303 32-614): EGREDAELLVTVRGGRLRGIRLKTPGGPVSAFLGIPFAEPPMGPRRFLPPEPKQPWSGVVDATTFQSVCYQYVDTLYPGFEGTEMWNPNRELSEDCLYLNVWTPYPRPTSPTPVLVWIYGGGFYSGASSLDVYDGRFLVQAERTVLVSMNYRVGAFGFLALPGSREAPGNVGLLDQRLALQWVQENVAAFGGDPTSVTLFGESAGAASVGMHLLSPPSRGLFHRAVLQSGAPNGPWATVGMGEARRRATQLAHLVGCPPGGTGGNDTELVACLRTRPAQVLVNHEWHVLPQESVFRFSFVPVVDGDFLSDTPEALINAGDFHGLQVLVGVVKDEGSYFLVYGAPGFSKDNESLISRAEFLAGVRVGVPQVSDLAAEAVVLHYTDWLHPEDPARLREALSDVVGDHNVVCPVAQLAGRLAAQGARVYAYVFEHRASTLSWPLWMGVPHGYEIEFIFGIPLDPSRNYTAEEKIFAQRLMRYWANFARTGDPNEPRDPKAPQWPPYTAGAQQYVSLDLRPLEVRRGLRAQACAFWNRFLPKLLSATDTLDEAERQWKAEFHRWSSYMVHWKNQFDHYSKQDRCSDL

With `O=c1c(NCCCNc2c3c(nc4ccccc24)CCCC3)c(NCCCNc2c3c(nc4ccccc24)CCCC3)c1=O` [Compound 3b, Bis({3-[(1,2,3,4-tetrahydroacridin-9-yl)amino]propyl}amino)cyclobut-3-ene-1,2-dione] the IC50 [1] was 0.0084 µM, the “SI (selectivity index for hAChE)” value [1] was 6.5 and the IC50 [2] was 0.055 µM. It also gave an IC50 at 24 h (in vitro) greater than 32 µM.

With `O=c1c(NCCCCNc2c3c(nc4ccccc24)CCCC3)c(NCCCCNc2c3c(nc4ccccc24)CCCC3)c1=O` [Compound 3c, Bis({4-[(1,2,3,4-tetrahydroacridin-9-yl)amino]butyl}amino)cyclobut-3-ene-1,2-dione] the IC50 [1] was 0.0055 µM, the “SI (selectivity index for hAChE)” value [1] was 14 and the IC50 [2] was 0.075 µM. For the same compound, the IC50 at 24 h (in vitro) was 150 µM.

In the case of `O=c1c(NCCCCCNc2c3c(nc4ccccc24)CCCC3)c(NCCCCCNc2c3c(nc4ccccc24)CCCC3)c1=O` [Compound 3d, Bis({5-[(1,2,3,4-tetrahydroacridin-9-yl)amino]pentyl}amino)cyclobut-3-ene-1,2-dione], the IC50 [1] is reported as 0.0081 µM, the “SI (selectivity index for hAChE)” value [1] is reported as 8.5 and the IC50 [2] is reported as 0.069 µM. It also gave an IC50 at 24 h (in vitro) of 69 µM.

For `O=c1c(NCCCCCCCNc2c3c(nc4ccccc24)CCCC3)c(NCCCCCCCNc2c3c(nc4ccccc24)CCCC3)c1=O` [Compound 3f, Bis({7-[(1,2,3,4-tetrahydroacridin-9-yl)amino]heptyl}amino)cyclobut-3-ene-1,2-dione], the IC50 [1] was 0.032 µM, the “SI (selectivity index for hAChE)” value [1] was 1 and the IC50 [2] was 0.032 µM. For the same compound, the IC50 at 24 h (in vitro) was 23 µM.

With `O=c1c(NCCCCCCCCNc2c3c(nc4ccccc24)CCCC3)c(NCCCCCCCCNc2c3c(nc4ccccc24)CCCC3)c1=O` [Compound 3g, Bis({8-[(1,2,3,4-tetrahydroacridin-9-yl)amino]octyl}amino)cyclobut-3-ene-1,2-dione] the IC50 [1] was 0.072 µM, the “SI (selectivity index for hAChE)” value [1] was 0.7 and the IC50 [2] was 0.05 µM. The IC50 at 24 h (in vitro) was 6.6 µM.

With `O=c1c(NCCNc2c3c(nc4cc(Cl)ccc24)CCCC3)c(NCCNc2c3c(nc4cc(Cl)ccc24)CCCC3)c1=O` [Compound 4a, Bis({2-[(6-chloro-1,2,3,4-tetrahydroacridin-9-yl)amino]ethyl}amino)cyclobut-3-ene-1,2-dione] the IC50 [1] was 0.0042 µM, the “SI (selectivity index for hAChE)” value [1] was 36 and the IC50 [2] was 0.15 µM. It also gave an IC50 at 24 h (in vitro) greater than 128 µM.

With `O=c1c(NCCCCNc2c3c(nc4cc(Cl)ccc24)CCCC3)c(NCCCCNc2c3c(nc4cc(Cl)ccc24)CCCC3)c1=O` [Compound 4c, Bis({4-[(6-chloro-1,2,3,4-tetrahydroacridin-9-yl)amino]butyl}amino)cyclobut-3-ene-1,2-dione] the IC50 [1] was 0.0046 µM, the “SI (selectivity index for hAChE)” value [1] was 37 and the IC50 [2] was 0.17 µM. The IC50 at 24 h (in vitro) was greater than 64 µM.

For `O=c1c(NCCCCCNc2c3c(nc4cc(Cl)ccc24)CCCC3)c(NCCCCCNc2c3c(nc4cc(Cl)ccc24)CCCC3)c1=O` [Compound 4d, Bis({5-[(6-chloro-1,2,3,4-tetrahydroacridin-9-yl)amino]pentyl}amino)cyclobut-3-ene-1,2-dione], the IC50 [1] was 0.0082 µM, the “SI (selectivity index for hAChE)” value [1] was 38 and the IC50 [2] was 0.31 µM. For the same compound, the IC50 at 24 h (in vitro) was greater than 64 µM.

For `O=c1c(NCCCCCCCNc2c3c(nc4cc(Cl)ccc24)CCCC3)c(NCCCCCCCNc2c3c(nc4cc(Cl)ccc24)CCCC3)c1=O` [Compound 4f, Bis({7-[(6-chloro-1,2,3,4-tetrahydroacridin-9-yl)amino]heptyl}amino)cyclobut-3-ene-1,2-dione], the IC50 [1] was 0.016 µM, the “SI (selectivity index for hAChE)” value [1] was 28 and the IC50 [2] was 0.45 µM. For the same compound, the IC50 at 24 h (in vitro) was greater than 64 µM.

In the case of `O=c1c(NCCCCCCCCNc2c3c(nc4cc(Cl)ccc24)CCCC3)c(NCCCCCCCCNc2c3c(nc4cc(Cl)ccc24)CCCC3)c1=O` [Compound 4g, Bis({8-[(6-chloro-1,2,3,4-tetrahydroacridin-9-yl)amino]octyl}amino)cyclobut-3-ene-1,2-dione], the IC50 [1] is reported as 0.01 µM, the “SI (selectivity index for hAChE)” value [1] is reported as “˃10,000” and the IC50 [2] is reported as greater than 100 µM. The IC50 at 24 h (in vitro) was greater than 64 µM.

For `COc1ccc2nc3c(c(NCCCNc4c(NCCCNc5c6c(nc7ccc(OC)cc57)CCCC6)c(=O)c4=O)c2c1)CCCC3` [Compound 5b, Bis({3-[(7-methoxy-1,2,3,4-tetrahydroacridin-9-yl)amino]propyl}amino)cyclobut-3-ene-1,2-dione], the IC50 [1] was 1.1 µM, the “SI (selectivity index for hAChE)” value [1] was 8.1 and the IC50 [2] was 8.9 µM. For the same compound, the IC50 at 24 h (in vitro) was greater than 64 µM.

Work on `COc1ccc2nc3c(c(NCCCCNc4c(NCCCCNc5c6c(nc7ccc(OC)cc57)CCCC6)c(=O)c4=O)c2c1)CCCC3` [Compound 5c, Bis({4-[(7-methoxy-1,2,3,4-tetrahydroacridin-9-yl)amino]butyl}amino)cyclobut-3-ene-1,2-dione] yielded an IC50 [1] of 4.5 µM, an IC50 [2] of 4.7 µM and an IC50 at 24 h (in vitro) of 190 µM.

With `COc1ccc2nc3c(c(NCCCCCCNc4c(NCCCCCCNc5c6c(nc7ccc(OC)cc57)CCCC6)c(=O)c4=O)c2c1)CCCC3` [Compound 5e, Bis({6-[(7-methoxy-1,2,3,4-tetrahydroacridin-9-yl)amino]hexyl}amino)cyclobut-3-ene-1,2-dione] the IC50 [1] was 0.15 µM, the “SI (selectivity index for hAChE)” value [1] was 7.3 and the IC50 [2] was 1.1 µM. It also gave an IC50 at 24 h (in vitro) of 26 µM.

With `Nc1c2c(nc3cc(Cl)ccc13)CCCC2` [Compound 6-Cl-THA, 6-chlorotacrine, reference compound] the IC50 at 24 h (in vitro) was 43 µM.

`COc1ccc2nc3c(c(N)c2c1)CCCC3` [Compound 7-MEOTA, 7-methoxytacrine, reference compound] showed an IC50 at 24 h (in vitro) of 44 µM.

`COc1ccc2c3c1O[C@H]1C[C@@H](O)C=C[C@@]31CCN(C)C2` [Galantamine, galantamine, reference compound] gave an IC50 at 24 h (in vitro) of 4200 µM.

Work on `CCN(C)C(=O)Oc1cccc([C@H](C)N(C)C)c1` [Rivastigmine, rivastigmine, reference compound] yielded an IC50 at 24 h (in vitro) of 3400 µM.

In the case of `Nc1c2c(nc3ccccc13)CCCC2` [THA, 9-amino-1,2,3,4-tetrahydroacridine, reference compound], the Pe [3] is reported as 6 ×10⁻⁶ cm/s and the “CNS (+/−) predicted BBB permeation” value [3] is reported as “CNS + (CNS +: high BBB permeation predicted with Pe (10^−6 cm·s^−1) > 4.0)”.

For `NS(=O)(=O)c1cc2c(cc1Cl)N=CNS2(=O)=O` [chlorothiazide, reference compound], the Pe [3] was 0.3 ×10⁻⁶ cm/s and the “CNS (+/−) predicted BBB permeation” value [3] was “CNS − (CNS −: low BBB permeation predicted with Pe (10^−6 cm·s^−1) < 2.0)”.

With `CC(C)Cc1ccc(C(C)C(=O)O)cc1` (centres unmarked) [ibuprofen, reference compound] the Pe [3] was 12 ×10⁻⁶ cm/s.

For `CNC(=C[N+](=O)[O-])NCCSCc1ccc(CN(C)C)o1` [ranitidine, reference compound], the Pe [3] was 0 ×10⁻⁶ cm/s and the “CNS (+/−) predicted BBB permeation” value [3] was “CNS − (CNS −: low BBB permeation predicted with Pe (10^−6 cm·s^−1) < 2.0)”.
